Our source for the IC50 and EC50 values is patent US11180479B2 (HAPLOGEN GmbH, priority 2017, dated 2021).

Bounds are passed on as bounds.

For one experiment, the target named is T1, PLA2G16 (Homo sapiens, UniProt P53816).
T1 construct: Hexa-His (N); made in house; host or cells: E. coli BL21(DE3)
T1 sequence (P53816 1-162): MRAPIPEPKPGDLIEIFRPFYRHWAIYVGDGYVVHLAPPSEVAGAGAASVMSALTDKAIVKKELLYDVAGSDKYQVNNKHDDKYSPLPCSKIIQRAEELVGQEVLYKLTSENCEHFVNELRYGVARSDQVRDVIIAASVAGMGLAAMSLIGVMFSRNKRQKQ
As to the kind of experiment: Enzyme activity assay for PLA2G16 (Red/Green BODIPY PC-A2 fluorescence). Type of experiment: biochemical. As to conditions: His-tagged PLA2G16, 4 min pre-incubation, compound 2 nM to 50 μM; first symbol in parentheses. The method, boiled down:
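N-His human PLA2G16 was expressed in E. coli and Ni-NTA purified. Enzyme in 5 mM glutathione was preincubated 4 min with compound (2 nM–50 μM final), then Red/Green BODIPY PC-A2 in DOPC/DOPG/cholesterol vesicles was added (50 mM Tris pH 8.5, 100 mM NaCl). Fluorescence increase (ex 480/em 530 nm) over 10 min gave activity; IC50 came from nonlinear regression.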

The subject of experiment [1] is picornaviruses (CVB1, HRV-A2, HRV-A23, EV-68). As to the kind of experiment: Anti-picornavirus cytopathic effect (CPE) reduction assay on HeLa H1 cells. Type of experiment: cell-based. Conditions: 48 h, category from averaging EC50 values of four picornaviruses (CVB1, HRV-A2, HRV-A23, EV68), second symbol in parentheses. The method, boiled down:
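HeLa H1 cells pre-treated 2 h with serial compound dilutions in 2% FBS DMEM, then infected at an MOI giving full CPE in 2 days; after 48 h, viability by CellTiterBlue fluorescence (560/590 nm) normalised to infected and uninfected vehicle controls; EC50 by non-linear regression, averaged over the four viruses.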
(Damage to the host cells serves as the signal in cytopathic effect assays.)

Consider `O=C(NCC1CC1)C(=O)[C@H]1CNC(=O)[C@@H]1Cc1ccccc1` (racemic) [FP-1, Rac-2-[(3R,4R)-4-benzyl-5-oxopyrrolidin-3-yl]-N-(cyclopropylmethyl)-2-oxoacetamide], for which the IC50 (usually the concentration that gives 50% inhibition) on PLA2G16 was < 1000 nM. For the same compound, in experiment [1], the EC50 – broadly, the concentration needed to bring the measured effect to its halfway point – is < 1000 nM.

Take `O=C(NC1CC1)C(=O)[C@H]1CN(c2cncnc2)C(=O)[C@@H]1c1ccccc1` (racemic) [FP-63, Rac-N-cyclopropyl-2-oxo-2-[(3R,4S)-5-oxo-4-phenyl-1-(pyrimidin-5-yl)pyrrolidin-3-yl]acetamide]: on PLA2G16, the IC50 is < 1000 nM. Also, the EC50 in experiment [1] is 1000 to 10000 nM.

In the case of `CC(C)CNC(=O)C(=O)[C@H]1CNC(=O)[C@@H]1Cc1ccccn1` (racemic) [FP-80, Rac-N-(2-methylpropyl)-2-oxo-2-[(3R,4R)-5-oxo-4-[(pyridin-2-yl)methyl]pyrrolidin-3-yl]acetamide], the IC50 at PLA2G16 is < 1000 nM. For the same compound, the EC50 in experiment [1] was < 1000 nM.

`CC(C)(C)NC(=O)C(=O)[C@H]1CNC(=O)[C@@H]1c1ccccc1` (racemic) [FP-17, Rac-N-tert-butyl-2-oxo-2-[(3R,4S)-5-oxo-4-phenylpyrrolidin-3-yl]acetamide]: the IC50 at PLA2G16 is < 1000 nM. Also, in experiment [1], the EC50 was < 1000 nM.

Consider `CC(C)CNC(=O)C(=O)[C@@H]1CN(CC(=O)N(C)C)C(=O)[C@H]1Cc1ccccc1` (single isomer, unassigned) [FP-91], for which the IC50 at PLA2G16 was 1000 to 10000 nM. Further, the EC50 in experiment [1] was > 10000 nM.

With `CC(F)(F)CNC(=O)C(=O)[C@@H]1CN(c2cncnc2)C(=O)[C@H]1Cc1ccccc1` (single isomer, unassigned) [FP-96], the IC50 at PLA2G16 was < 1000 nM. Moreover, in experiment [1], the EC50 lay within 1000 to 10000 nM.

On to `O=C(NC1CC1)C(=O)[C@H]1CN(c2ccc(Cl)nn2)C(=O)[C@@H]1Cc1ccccc1` (racemic) [FP-62, Rac-2-[(3R,4R)-4-benzyl-1-(6-chloropyridazin-3-yl)-5-oxopyrrolidin-3-yl]-N-cyclopropyl-2-oxoacetamide], for which the IC50 at PLA2G16 is < 1000 nM. Besides, the EC50 in experiment [1] is < 1000 nM.

For `O=C(NCC(F)F)C(=O)[C@H]1CNC(=O)[C@@H]1Cc1ccccc1` (single isomer, unassigned) [FP-83], at PLA2G16, the IC50 was < 1000 nM. For the same compound, in experiment [1], the EC50 was < 1000 nM.

Regarding `CCNC(=O)C(=O)[C@H]1CN(Cc2ncccn2)C(=O)[C@@H]1Cc1ccccc1` (racemic) [FP-36, Rac-2-[(3R,4R)-4-benzyl-5-oxo-1-[(pyrimidin-2-yl)methyl]pyrrolidin-3-yl]-N-ethyl-2-oxoacetamide], the half-inhibitory concentration (IC50) on PLA2G16 is < 1000 nM. The EC50 in experiment [1] is 1000 to 10000 nM.

In the case of `Cc1cc(CN2C[C@H](C(=O)C(=O)NC3CC3)[C@@H](c3ccccc3)C2=O)no1` (racemic) [FP-100, Rac-N-cyclopropyl-2-[(3R,4S)-1-[(5-methyl-1,2-oxazol-3-yl)methyl]-5-oxo-4-phenylpyrrolidin-3-yl]-2-oxoacetamide], the IC50 at PLA2G16 is < 1000 nM. Moreover, the 50% effective concentration (EC50) in experiment [1] lay within 1000 to 10000 nM.

With `O=C(NCC1CC1)C(=O)[C@H]1CNC(=O)[C@@H]1c1ccccc1` (single isomer, unassigned) [FP-86], on PLA2G16, the IC50 is < 1000 nM. Besides, the EC50 in experiment [1] is < 1000 nM.

Consider `CN1C[C@H](C(=O)C(=O)NC2CC2)[C@@H](C2CCCCC2)C1=O` (racemic) [FP-38, Rac-2-[(3R,4R)-4-cyclohexyl-1-methyl-5-oxopyrrolidin-3-yl]-N-cyclopropyl-2-oxoacetamide], for which, at PLA2G16, the IC50 was < 1000 nM. Also, the EC50 in experiment [1] was in the range of 1000 to 10000 nM.

For `O=C(NC1CCOCC1)C(=O)[C@H]1CNC(=O)[C@@H]1Cc1ccccc1` (racemic) [FP-7, Rac-2-[(3R,4R)-4-benzyl-5-oxopyrrolidin-3-yl]-N-(oxan-4-yl)-2-oxoacetamide], the IC50 on PLA2G16 is < 1000 nM. Moreover, the EC50 in experiment [1] is 1000 to 10000 nM.

Regarding `CC(C)NC(=O)C(=O)[C@H]1CNC(=O)[C@@H]1Cc1ccccc1` (racemic) [FP-5, Rac-2-[(3R,4R)-4-benzyl-5-oxopyrrolidin-3-yl]-2-oxo-N-(propan-2-yl)acetamide], the IC50 on PLA2G16 is < 1000 nM. Besides, the EC50 in experiment [1] is < 1000 nM.

In the case of `CC(C)CNC(=O)C(=O)[C@H]1CN(CC(=O)N(C)C)C(=O)[C@@H]1Cc1ccccc1` (racemic) [FP-44, Rac-2-[(3R,4R)-3-benzyl-4-{[(2-methylpropyl)carbamoyl]carbonyl}-2-oxopyrrolidin-1-yl]-N,N-dimethylacetamide], at PLA2G16, the IC50 is < 1000 nM. Further, the concentration giving a half-maximal response (EC50) in experiment [1] is < 1000 nM.

For `O=C(NC1CC1)C(=O)[C@H]1CN(Cc2ncccn2)C(=O)[C@@H]1Cc1ccccc1` (racemic) [FP-35, Rac-2-[(3R,4R)-4-benzyl-5-oxo-1-[(pyrimidin-2-yl)methyl]pyrrolidin-3-yl]-N-cyclopropyl-2-oxoacetamide], at PLA2G16, the IC50 was < 1000 nM. Moreover, the EC50 in experiment [1] was in the range of 1000 to 10000 nM.

`N#Cc1ncncc1N1C[C@H](C(=O)C(=O)NC2CC2)[C@@H](Cc2ccccc2)C1=O` (racemic) [FP-65, Rac-2-[(3R,4R)-4-benzyl-1-(4-cyanopyrimidin-5-yl)-5-oxopyrrolidin-3-yl]-N-cyclopropyl-2-oxoacetamide]: the IC50 at PLA2G16 is < 1000 nM. The EC50 in experiment [1] fell in the range of 1000 to 10000 nM.

For the compound `O=C(NC1CC1)C(=O)[C@H]1CNC(=O)[C@@H]1c1ccccc1` (racemic) [FP-14, Rac-N-cyclopropyl-2-oxo-2-[(3R,4S)-5-oxo-4-phenylpyrrolidin-3-yl]acetamide], on PLA2G16, the IC50 was < 1000 nM. The EC50 in experiment [1] lay within 1000 to 10000 nM.

In the case of `Cn1ncnc1CN1C[C@H](C(=O)C(=O)NC2CC2)[C@@H](Cc2ccccc2)C1=O` (single isomer, unassigned) [FP-98], the IC50 on PLA2G16 is < 1000 nM. The EC50 in experiment [1] lay in the range of 1000 to 10000 nM.

As to `CC(C)CNC(=O)C(=O)[C@H]1CN(CCN2CCCC2=O)C(=O)[C@@H]1Cc1ccccc1` (racemic) [FP-47, Rac-2-[(3R,4R)-4-benzyl-5-oxo-1-[2-(2-oxopyrrolidin-1-yl)ethyl]pyrrolidin-3-yl]-N-(2-methylpropyl)-2-oxoacetamide], the IC50 at PLA2G16 is < 1000 nM. The EC50 in experiment [1] was 1000 to 10000 nM.

With `COCCN1C[C@H](C(=O)C(=O)NC2CC2)[C@@H](Cc2ccccc2)C1=O` (racemic) [FP-39, Rac-2-[(3R,4R)-4-benzyl-1-(2-methoxyethyl)-5-oxopyrrolidin-3-yl]-N-cyclopropyl-2-oxoacetamide], at PLA2G16, the IC50 was < 1000 nM. Further, the 50% effective concentration (EC50) in experiment [1] fell in the range of 1000 to 10000 nM.

For the compound `O=C(NC1CC1)C(=O)[C@H]1CN(c2cccc(=O)[nH]2)C(=O)[C@@H]1Cc1ccccc1` (racemic) [FP-70, Rac-2-[(3R,4R)-4-benzyl-5-oxo-1-(6-oxo-1,6-dihydropyridin-2-yl)pyrrolidin-3-yl]-N-cyclopropyl-2-oxoacetamide], the IC50 on PLA2G16 was < 1000 nM. In experiment [1], the EC50 is < 1000 nM.

`CC(C)ONC(=O)C(=O)[C@H]1CNC(=O)[C@@H]1Cc1ccc(F)cc1` (racemic) [FP-77, Rac-2-[(3R,4R)-4-[(4-fluorophenyl)methyl]-5-oxopyrrolidin-3-yl]-2-oxo-N-(propan-2-yloxy)acetamide]: at PLA2G16, the IC50 is < 1000 nM. In addition, the EC50 in experiment [1] is 1000 to 10000 nM.

On to `CC(F)(F)CNC(=O)C(=O)[C@H]1CN(c2cccc(OCc3ccccc3)n2)C(=O)[C@@H]1Cc1ccccc1` (racemic) [FP-73, Rac-2-[(3R,4R)-4-benzyl-1-[6-(benzyloxy)pyridin-2-yl]-5-oxopyrrolidin-3-yl]-N-(2,2-difluoropropyl)-2-oxoacetamide], for which, on PLA2G16, the IC50 was < 1000 nM. Besides, in experiment [1], the EC50 was < 1000 nM.

On to `O=C(NCC1CC1)C(=O)[C@H]1CNC(=O)[C@@H]1c1ccc(F)cc1` (racemic) [FP-28, Rac-N-(cyclopropylmethyl)-2-[(3R,4S)-4-(4-fluorophenyl)-5-oxopyrrolidin-3-yl]-2-oxoacetamide], for which the IC50 at PLA2G16 was < 1000 nM. In addition, the EC50 in experiment [1] is < 1000 nM.
